# Assay results reported in ChEMBL document CHEMBL1201862, “PubChem BioAssay data set” (2004).
#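 Results reflect a 48-hour exposure of cells in 96-well plates to compound at five concentrations. GI50 is the concentration that inhibits growth by half.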 Active and inactive are the calls of the source. Rule as the data show it: active = GI50 up to about 1.1 µM and inactive = higher.
# Legend:
# Assay in all cases: inhibition of tumour cell growth, NCI panel, 48 h
# SNB-75 = test system: SNB-75
# NCI-H226 = test system: NCI-H226
# SF-268 = test system: SF-268
# SNB-19 = test system: SNB-19
# MDA-N = test system: MDA-N
# BT-549 = test system: BT-549
# HT-29 = test system: HT-29
# UACC-257 = test system: UACC-257
# 786-0 = test system: 786-0
# CCRF-CEM = test system: CCRF-CEM
# IGROV-1 = test system: IGROV-1
# U-251 = test system: U-251
# OVCAR-8 = test system: OVCAR-8
# UO-31 = test system: UO-31
# M14 = test system: M14
# HOP-62 = test system: HOP-62
# OVCAR-5 = test system: OVCAR-5
# SR = test system: SR
# T47D = test system: T47D
SMILES,GI50 (SNB-75),GI50 (NCI-H226),GI50 (SF-268),GI50 (SNB-19),GI50 (MDA-N),GI50 (BT-549),GI50 (HT-29),GI50 (UACC-257),GI50 (786-0),GI50 (CCRF-CEM),GI50 (IGROV-1),GI50 (U-251),GI50 (OVCAR-8),GI50 (UO-31),GI50 (M14),GI50 (HOP-62),GI50 (OVCAR-5),GI50 (SR),GI50 (T47D)
Cc1nc(C(N)=S)sc1C(/C=C/c1ccc(Cl)c(Cl)c1)=N/NC(C)(C)C,> 100 µM (inactive),56.5 µM (inactive),> 100 µM (inactive),> 100 µM (inactive),> 100 µM (inactive),> 100 µM (inactive),> 100 µM (inactive),> 100 µM (inactive),> 100 µM (inactive),32.8 µM (inactive),> 100 µM (inactive),> 100 µM (inactive),> 100 µM (inactive),33.2 µM (inactive),,,,,
COc1ccc(S(=O)(=O)Nc2ccc(-c3csc(N4C(=O)/C(=C/c5ccccc5[N+](=O)[O-])N=C4c4ccccc4)n3)cc2)cc1Cl,> 100 µM (inactive),> 100 µM (inactive),38.8 µM (inactive),59 µM (inactive),60 µM (inactive),,> 100 µM (inactive),38.6 µM (inactive),> 100 µM (inactive),,16.1 µM (inactive),37.2 µM (inactive),35.3 µM (inactive),32.3 µM (inactive),24.4 µM (inactive),> 100 µM (inactive),73.6 µM (inactive),30.8 µM (inactive),24.5 µM (inactive)
NCC#CCNCCCN1CC1,< 0.01 µM (active),> 100 µM (inactive),> 100 µM (inactive),> 100 µM (inactive),> 100 µM (inactive),,> 100 µM (inactive),> 100 µM (inactive),> 100 µM (inactive),,> 100 µM (inactive),> 100 µM (inactive),> 100 µM (inactive),,> 100 µM (inactive),> 100 µM (inactive),> 100 µM (inactive),> 100 µM (inactive),> 100 µM (inactive)
Cc1ccc2ccccc2c1NC1=NCCO1,> 100 µM (inactive),20.2 µM (inactive),> 100 µM (inactive),27.2 µM (inactive),,,83 µM (inactive),57.3 µM (inactive),> 100 µM (inactive),70.3 µM (inactive),> 100 µM (inactive),> 100 µM (inactive),> 100 µM (inactive),27.7 µM (inactive),> 100 µM (inactive),> 100 µM (inactive),> 100 µM (inactive),34.2 µM (inactive),41.7 µM (inactive)
Cc1cc(S(N)(=O)=O)c(S/C(=N\Nc2ccc([N+](=O)[O-])cc2)c2ccc(Cl)cc2)cc1Cl,1.83 µM (inactive),2.22 µM (inactive),2.3 µM (inactive),3.33 µM (inactive),,4.65 µM (inactive),1.87 µM (inactive),2.72 µM (inactive),2.64 µM (inactive),3.56 µM (inactive),3.44 µM (inactive),2.25 µM (inactive),,4.42 µM (inactive),4.09 µM (inactive),3.18 µM (inactive),2.64 µM (inactive),2.94 µM (inactive),3.07 µM (inactive)
N#Cc1nc(C2SCCCS2)oc1N,< 0.01 µM (active),,> 100 µM (inactive),> 100 µM (inactive),> 100 µM (inactive),,> 100 µM (inactive),> 100 µM (inactive),> 100 µM (inactive),64.3 µM (inactive),> 100 µM (inactive),> 100 µM (inactive),> 100 µM (inactive),,> 100 µM (inactive),> 100 µM (inactive),> 100 µM (inactive),> 100 µM (inactive),
CC1=NN(c2cccc(Cl)c2)C(=N/c2nc3ccccc3s2)/C1=C\c1ccccc1O,25.4 µM (inactive),22.2 µM (inactive),24.2 µM (inactive),,30.4 µM (inactive),,39.7 µM (inactive),21.9 µM (inactive),30.1 µM (inactive),35.9 µM (inactive),19.7 µM (inactive),23.8 µM (inactive),27.4 µM (inactive),34 µM (inactive),38 µM (inactive),29.6 µM (inactive),61.7 µM (inactive),40.6 µM (inactive),36.4 µM (inactive)
COC1=CC2C(c3cc4ccccc4n3S(=O)(=O)c3ccccc3)CC1CN2C(=O)OCc1ccccc1 (centres undefined),1.6 µM (inactive),27.4 µM (inactive),,,34.5 µM (inactive),25 µM (inactive),23.6 µM (inactive),34.8 µM (inactive),33.9 µM (inactive),29.4 µM (inactive),33.7 µM (inactive),37.3 µM (inactive),50.8 µM (inactive),27.2 µM (inactive),19.6 µM (inactive),40.4 µM (inactive),18.2 µM (inactive),,
O=C(/C=C(\O)C(=O)O)/C=C(\O)c1ccccc1Cl,> 79.8 µM (inactive),> 100 µM (inactive),> 100 µM (inactive),> 100 µM (inactive),,,> 100 µM (inactive),> 100 µM (inactive),> 100 µM (inactive),> 100 µM (inactive),> 100 µM (inactive),> 100 µM (inactive),> 100 µM (inactive),> 100 µM (inactive),> 100 µM (inactive),> 100 µM (inactive),> 100 µM (inactive),> 100 µM (inactive),
COC(=O)/C=C/N1CC1,3.48 µM (inactive),> 10 µM (inactive),> 10 µM (inactive),8.15 µM (inactive),,> 10 µM (inactive),3.28 µM (inactive),> 10 µM (inactive),> 10 µM (inactive),> 10 µM (inactive),1.45 µM (inactive),5.41 µM (inactive),> 10 µM (inactive),,> 10 µM (inactive),> 10 µM (inactive),4.76 µM (inactive),> 10 µM (inactive),> 10 µM (inactive)
Fc1ccc2c3c([nH]c2c1)CCN(Cc1ccccc1)C3,16.9 µM (inactive),19 µM (inactive),21 µM (inactive),16.6 µM (inactive),,,20.4 µM (inactive),15.3 µM (inactive),16.1 µM (inactive),30.4 µM (inactive),20.7 µM (inactive),19.7 µM (inactive),19.7 µM (inactive),12.2 µM (inactive),17.3 µM (inactive),15 µM (inactive),19.9 µM (inactive),18.3 µM (inactive),14.7 µM (inactive)
Oc1c(Cl)c(Cl)c(O)c(CCNc2nccs2)c1Cl,20.5 µM (inactive),,9.06 µM (inactive),17 µM (inactive),,,17.9 µM (inactive),20 µM (inactive),16.9 µM (inactive),3.74 µM (inactive),3.27 µM (inactive),11.3 µM (inactive),16.6 µM (inactive),16.4 µM (inactive),15.7 µM (inactive),19.1 µM (inactive),23.2 µM (inactive),4.81 µM (inactive),5.48 µM (inactive)
Cc1c(N2CCN(C)CC2)nc2ccc(Cl)cc2c1-c1ccccc1,16.7 µM (inactive),,29.4 µM (inactive),25.2 µM (inactive),,,14.3 µM (inactive),17.9 µM (inactive),14.4 µM (inactive),17.5 µM (inactive),,17.3 µM (inactive),16.6 µM (inactive),16.5 µM (inactive),18.5 µM (inactive),18.2 µM (inactive),,17.9 µM (inactive),
O=C(NCCN1CCOCC1)c1ccc2cc(C(=O)N3CC(CCl)c4ccc([N+](=O)[O-])cc43)[nH]c2c1 (centres undefined),6.7 µM (inactive),27.3 µM (inactive),9.84 µM (inactive),12 µM (inactive),,16.9 µM (inactive),5.14 µM (inactive),25 µM (inactive),4.41 µM (inactive),7.82 µM (inactive),11.5 µM (inactive),9.66 µM (inactive),12.1 µM (inactive),43.4 µM (inactive),7.38 µM (inactive),17.1 µM (inactive),> 100 µM (inactive),,26.2 µM (inactive)
Cc1ccc(O)c(/N=N\c2c(O)cc(S(=O)(=O)O)c3ccccc23)c1,,14.1 µM (inactive),> 100 µM (inactive),,,81.7 µM (inactive),61.5 µM (inactive),94.6 µM (inactive),57.5 µM (inactive),23.1 µM (inactive),40.3 µM (inactive),61.8 µM (inactive),26.2 µM (inactive),17.3 µM (inactive),24.6 µM (inactive),57.4 µM (inactive),45.6 µM (inactive),17.8 µM (inactive),
CC1(C)OCC(C(O)C2OC(C)(C)OC2C=O)O1 (centres undefined),> 100 µM (inactive),> 100 µM (inactive),> 100 µM (inactive),> 100 µM (inactive),> 100 µM (inactive),,> 100 µM (inactive),> 100 µM (inactive),> 100 µM (inactive),> 100 µM (inactive),> 100 µM (inactive),> 100 µM (inactive),> 100 µM (inactive),> 100 µM (inactive),> 100 µM (inactive),> 100 µM (inactive),> 100 µM (inactive),> 100 µM (inactive),
O=C1Nc2ccccc2/C1=N/NC(=S)Nc1ccccc1Cl,2.82 µM (inactive),10.1 µM (inactive),0.706 µM (active),4.84 µM (inactive),20.6 µM (inactive),,5.41 µM (inactive),2 µM (inactive),1.77 µM (inactive),0.724 µM (active),3.33 µM (inactive),3.56 µM (inactive),2.23 µM (inactive),3.32 µM (inactive),1.62 µM (inactive),11.5 µM (inactive),26.5 µM (inactive),< 0.01 µM (active),11.6 µM (inactive)
